In US20080096939A1, “Process For Preparation Of Pramipexole By Chiral Chromatography” (priority 2004, published 2008):

Experiments:
[1] = acetonitrile:methanol (81:19)
Description: Racemic pramipexole was subjected to preparative chromatography using Chiralpak® AD as the stationary phase and acetonitrile:methanol (81:19) as the mobile phase.

dopamine D-2 = dopamine D-2 (Homo sapiens, UniProt P14416); settings: compared with the R(+) enantiomer; cited from earlier work
Chain of dopamine D-2 (P14416 whole entry): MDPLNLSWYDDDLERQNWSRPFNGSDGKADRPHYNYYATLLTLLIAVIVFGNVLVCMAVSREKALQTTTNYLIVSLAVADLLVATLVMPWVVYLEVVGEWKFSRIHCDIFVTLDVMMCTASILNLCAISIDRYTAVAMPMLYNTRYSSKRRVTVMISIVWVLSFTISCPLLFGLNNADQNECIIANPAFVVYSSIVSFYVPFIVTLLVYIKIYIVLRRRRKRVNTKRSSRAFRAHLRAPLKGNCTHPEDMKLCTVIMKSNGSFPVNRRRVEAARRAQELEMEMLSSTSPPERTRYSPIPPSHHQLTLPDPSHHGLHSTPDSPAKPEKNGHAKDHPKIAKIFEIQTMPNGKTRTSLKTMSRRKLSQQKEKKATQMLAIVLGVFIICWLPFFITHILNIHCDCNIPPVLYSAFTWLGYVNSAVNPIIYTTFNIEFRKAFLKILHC

Structure (SMILES)	solubility in the mobile phase [1] [g/L]	dopaminergic activity of the S(−) enantiomer relative to the corresponding R(+) enantiomer (dopamine D-2)
CCCNC1CCc2nc(N)sc2C1 (racemic) [Racemic pramipexole, R,S(±)-2-amino-6-propylamino-4,5,6,7-tetrahydrobenzothiazole]	> 40	–
CCCN[C@H]1CCc2nc(N)sc2C1 [Pramipexole, S(−)-2-amino-6-propylamino-4,5,6,7-tetrahydrobenzothiazole]	–	twice as high
